Experimental findings from the METLIN SMRT retention time set (Domingo-Almenara et al. 2019) are described below.

Structures are written as SMILES.

A short description of this series: gradient 5% acetonitrile 3 min, to 50% in 2 min, to 85% in 15 min, held 3 min, 100 µL/min. Particulars: column: Zorbax Extend-C18 2.1 x 50 mm; eluents: water / acetonitrile, 0.1% formic acid. In a few lines: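 Retention times come from adduct peaks that were picked computationally and then checked by hand. The standards, pure and pooled in mixtures of ~100 molecules, were run on a Zorbax Extend-C18 column (2.1 × 50 mm, 1.8 μm) at 100 μL/min with water and acetonitrile, each with 0.1% formic acid. Detection was by quadrupole time-of-flight mass spectrometry in positive and negative ionization mode, with a dead volume of 40 μL and a dwell volume of 900 μL.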
`CCCCOC(=O)c1ccc(NC(=O)c2cccn(Cc3cccc([N+](=O)[O-])c3)c2=O)cc1` had an RP-LC retention time of 1140 s.

For `CCOc1ccc(-n2ccn3cc(-c4cc(OC)ccc4OC)nc3c2=O)cc1`, the RP-LC retention time was determined as 895 s. The result for `CCn1cnc2ccc(-c3noc(-c4ccc(F)cc4)n3)cc21` reads 780 s; that for `COCCn1cc(CCNC(=O)Nc2ccc(Br)cc2)c2cccnc21`, 778 s.

`COc1ccc(-c2noc(Cc3nc(-c4ccc(C)c(C)c4)cs3)n2)cc1` had an RP-LC retention time of 1310 s. Regarding `Nc1nc(CN2CCN(c3ccccn3)CC2)nc(N2CCCCC2)n1`, the RP-LC retention time is 561 s. `COC(=O)c1cc2n(n1)CC(C)(C(=O)NC1CCCCC1)N(c1cccc(F)c1)C2=O` (stereo not drawn): the RP-LC retention time was 737 s. The compound `Cc1cccc(N2CCN(Cc3nc(-c4ccc(N5CCC(C)CC5)nc4)no3)CC2)c1` came in with an RP-LC retention time of 1110 s. `Cc1nnc2ccc(-c3noc(CCc4ccccc4)n3)cn12`: the RP-LC retention time stood at 1140 s. In the case of `CC(=O)Nc1ccc(NC(=O)C2CCN(S(=O)(=O)c3ccc4c(c3)CCCC(=O)N4)CC2)cc1`, the RP-LC retention time amounted to 644 s. `COc1cccc(N2CCN(Cc3nc(-c4ccc(N5CCCC(C)C5)nc4)no3)CC2)c1` (stereo not drawn) returned an RP-LC retention time of 882 s.

For `C#CCOCC1CCCN(S(=O)(=O)Cc2ccccc2)C1` (stereo not drawn), the RP-LC retention time was 840 s. In turn, `Cc1nc(-c2csc(S(=O)(=O)N3CCC(C(=O)N4CCC(C)CC4)CC3)c2)no1` had an RP-LC retention time of 903 s. Regarding `Cn1cc(-c2cc3n(n2)CCC(=O)N3CC(=O)NCCCN2CCCC2=O)c2ccccc21`, the RP-LC retention time came to 657 s. `Cc1nc(CNC(=O)C2CCN(C(=O)Nc3ccc(Br)cc3F)CC2)cs1` showed an RP-LC retention time of 699 s. The result for `COC(=O)c1cccc(C(=O)Nc2ccc(Br)cc2F)n1` reads 1000 s. In turn, `CCc1cc(=O)n(CC(=O)Nc2ccc3c(c2)OCCO3)c(N2CCOCC2)n1` yielded an RP-LC retention time of 681 s. With `CCOc1ccc(-n2c(=O)c3sccc3n(Cc3nc(-c4ccccc4C)no3)c2=O)cc1`, the RP-LC retention time was found to be 1070 s. `O=C(NCCOc1ccc(F)cc1)C1CCCN(c2ccc(-c3cccs3)nn2)C1` (stereo not drawn) showed an RP-LC retention time of 702 s. Regarding `CCCN1C(=O)COc2cc(-c3noc(C(=O)N4CCN(c5cccc(Cl)c5)CC4)n3)ccc21`, the RP-LC retention time came out at 1230 s. For the compound `Cc1nnc(-c2ccc3ccn(CC(=O)NC(C)(C)C)c3c2)o1`, the RP-LC retention time amounted to 718 s. The compound `COc1cccc(NC(=O)C2CCN(c3nnc4c(Cl)cccn34)CC2)c1` displayed an RP-LC retention time of 666 s. The result for `O=C(Cn1nc2c3cc(F)ccc3ncn2c1=O)Nc1ccc(F)c(Cl)c1` reads 706 s; that for `CCOc1ccc(-c2cc3c(=O)n(Cc4nc(-c5cccc(Br)c5)no4)ccn3n2)cc1`, 1200 s.

`Cc1ccc2c(=O)c(C(=O)Nc3cccc(F)c3)c[nH]c2n1`: the RP-LC retention time was 770 s. In the case of `COc1ccc(C2CC(=O)N(c3ccc(Cl)cc3)C(=O)C2)cc1`, the RP-LC retention time is 942 s. Regarding `O=C(C1CCC1)N1CC(N(Cc2ccncc2)CC2CC2)C1`, the RP-LC retention time was found to be 590 s. The result for `COc1ccc(NC(=O)CSc2nccc3c2ccn3Cc2ccc(F)cc2)cc1OC` reads 788 s; that for `COc1ccc(-c2noc(-c3ccc(N4CCN(C)CC4)nn3)n2)cc1`, 630 s. Turning to `Cc1cccc(OCC(=O)N2C[C@@H](F)C[C@H]2C(=O)N2CCc3ccccc32)c1`, the RP-LC retention time is 878 s.

`CN(C)c1ccc(C(CNC(=O)c2cccs2)N(C)C)cc1` (stereo not drawn) returned an RP-LC retention time of 618 s. As for `Cc1nn(CC(=O)N2CCN(c3ccccn3)CC2)c(=O)c2nc(-c3ccccc3)sc12`, the figure is 632 s; as for `CC1CN(C(=O)CSc2nc(-c3ccco3)cc(C(F)(F)F)n2)CC(C)O1` (stereo not drawn), 952 s. As to `CCn1c(SC)nnc1-c1nn(C)c2c1CN(C(=O)C1CCCCC1)CC2`, the RP-LC retention time stood at 815 s.

Consider `O=C(Cn1ncc2c3ccccc3n(Cc3ccccc3)c2c1=O)N1CCN(c2ncccn2)CC1`, for which the RP-LC retention time is 902 s. In turn, `Cc1cc2[nH]c(=O)[nH]c2cc1S(=O)(=O)N1CCN(Cc2ccccc2)CC1` came in with an RP-LC retention time of 548 s.

`Cc1ccc(-c2nnc(-c3nn(C)c4c3CN(S(=O)(=O)c3ccccc3C)CC4)o2)cc1` gave an RP-LC retention time of 1020 s.

As to `CC(C)NC(=O)c1ccc(OCC2CCCN(C(=O)Cc3cccc(F)c3)C2)cc1` (stereo not drawn), the RP-LC retention time stood at 955 s. Regarding `COc1cccc(NC(=O)Nc2ccc(-c3cn4ccc(C)nc4n3)cc2)c1`, the RP-LC retention time was 639 s.

As to `CC(=O)Nc1cccc2c(C(=O)NC3CCCC3)ccnc12`, the RP-LC retention time was 719 s.

In the case of `O=C(c1cccc(Cl)c1)N1C[C@@H]2C[C@H]1C[C@@H]2NS(=O)(=O)c1cccnc1`, the RP-LC retention time was found to be 709 s.

For the compound `Cc1ccc(F)cc1NS(=O)(=O)c1cc(-c2[nH]ncc2C(=O)N2CCOCC2)oc1C`, the RP-LC retention time worked out at 704 s. The result for `CCn1cc(C)c(C(=O)O)c1CC(=O)Nc1cc(C)ccc1C` reads 866 s; that for `CC1CCNC2C1NC(=O)C1CCCNC1N2C1CC1` (stereo not drawn), 679 s; that for `Cc1ccc(Cl)cc1NS(=O)(=O)c1cc(-c2cc(C(F)(F)F)on2)sc1C`, 1240 s. `Cc1ccc(C)c(NC(=O)Cn2nc3nc(N4CCCC4)ccn3c2=O)c1` came in with an RP-LC retention time of 687 s. The result for `CC(=O)N1CCc2sc(C(=O)NC(C)c3ccccc3)cc2C1` (stereo not drawn) reads 708 s; that for `CCCN(C(=O)Nc1cc(C)cc(C)c1)c1nc(-c2ccc(C3CCCCC3)cc2)cs1`, 856 s. `COCCC(=O)NC1CCN(C2=NS(=O)(=O)C(c3cccc(Cl)c3)=C2C)CC1` returned an RP-LC retention time of 722 s. In turn, `COc1cc(-c2noc(-c3nn(-c4cccc(F)c4)ccc3=O)n2)cc(OC)c1OC` gave an RP-LC retention time of 824 s. Regarding `Cc1ccc2c(c1)N(S(C)(=O)=O)CCC(C(=O)Nc1ccc(C)c(Cl)c1)O2` (stereo not drawn), the RP-LC retention time turned out to be 1090 s. `Cc1ccc(Sc2ccc(N3CCC(C(=O)N4CCN(c5ccccn5)CC4)CC3)nn2)cc1` displayed an RP-LC retention time of 646 s. In turn, `CC1(C(=O)NC2CCCCCCC2)CN(S(C)(=O)=O)CC(=O)N1c1cccc(F)c1` (stereo not drawn) showed an RP-LC retention time of 919 s. Regarding `O=C(CCc1csc(NC(=O)c2ccc(F)cc2)n1)NCCn1ncccc1=O`, the RP-LC retention time was found to be 624 s. As for `Cc1sc2ccn(C)c(=O)c2c1C(=O)NCc1ccccc1Br`, the RP-LC retention time was 834 s. Compound `O=C(c1ccccc1Br)N1CCN=C1N1CCN(c2ccccc2F)CC1` registered an RP-LC retention time of 757 s.

In the case of `Cc1nnc(N2CCCC(C(=O)NCc3ccc4c(c3)OCO4)C2)c2nn(-c3ccccc3)c(C)c12` (stereo not drawn), the RP-LC retention time came to 698 s. The compound `CCn1cnc(S(=O)(=O)N2CCC(C(=O)Nc3ccc(C)c(Cl)c3)CC2)c1` registered an RP-LC retention time of 822 s.
